From publication PMC9607599, “Dual Targeting Ligands—Histamine H3 Receptor Ligands with Monoamine Oxidase B Inhibitory Activity—In Vitro and In Vivo Evaluation” (Pharmaceutics, 2022) come the findings set out here.

“And” between values parts separate entries of the source, which are not always exact repeats. Identical values can stand only once. Counter-ions that a name gives are not always drawn. Like-named read-outs stand apart in the source and are kept apart here.

In general, melting point refers to the temperature of the solid-liquid transition. What is called Ki is the dissociation constant of the complex between target and ligand, obtained from inhibition or displacement. As a reminder, the IC50 is the point on the concentration scale where inhibition reaches its midpoint.

One series deals with T1, human MAO B (hMAO B) (Homo sapiens, UniProt P27338).
T1 sequence (P27338 1-520): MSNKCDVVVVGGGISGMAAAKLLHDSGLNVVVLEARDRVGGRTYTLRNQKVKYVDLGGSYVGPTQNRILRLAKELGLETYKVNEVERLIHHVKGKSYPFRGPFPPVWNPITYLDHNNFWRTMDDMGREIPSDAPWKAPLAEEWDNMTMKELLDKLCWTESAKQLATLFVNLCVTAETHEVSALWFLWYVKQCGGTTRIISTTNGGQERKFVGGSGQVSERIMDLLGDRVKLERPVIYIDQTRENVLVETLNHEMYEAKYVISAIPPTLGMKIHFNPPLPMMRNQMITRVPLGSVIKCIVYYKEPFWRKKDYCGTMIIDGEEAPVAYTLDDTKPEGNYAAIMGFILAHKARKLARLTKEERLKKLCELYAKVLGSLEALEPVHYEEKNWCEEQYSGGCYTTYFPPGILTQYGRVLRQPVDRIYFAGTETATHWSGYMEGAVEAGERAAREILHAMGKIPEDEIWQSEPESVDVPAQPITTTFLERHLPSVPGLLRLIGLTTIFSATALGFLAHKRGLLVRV
Kind of series: fluorometric MAO assay (p-tyramine substrate). The class given is biochemical. Conditions: for inhibition at 1 µM: mean of two independent experiments, read-out: hMAO B % of Inh.; for IC50: fluorometric MAO assay, mean ± SEM of 2–4 independent experiments. On the procedure: The precise method was described in [6]. First, compounds 4–32 were screened for hMAO B inhibitory activity at 1 μM concentration by the fluorometric method. Para-tyramine (200 μM) was used as a substrate for the enzyme and safinamide (1 μM) was used as a reference compound. […] Each experiment was performed in duplicate.
All compounds were first screened for hMAO B inhibitory activity at the concentration of 1 μM. […] Based on the results, we selected compounds 9 and 13 for further analysis.

For series [1], the target named is human histamine H3 receptor (hH3R) (Homo sapiens, UniProt Q9Y5N1). Kind of series: [3H]Nα-methylhistamine radioligand binding assay in CHO-K1 cells stably expressing hH3R. Also noted: expressed in transfected cells; host or cells: CHO-K1. The settings on record: for hH3R activity in words / inhibition at 1 µM: CHO K1 cells; for Ki: CHO-K1 cells, [3H]Nα-methylhistamine, mean ± SEM of three independent experiments; for inhibition at 1 µM: two independent experiments, read-out: hH3R % Inh. (radioligand inhibition). How it is done:
Affinity to hH3R stably expressed in CHO-K1 [6] or HEK293 [11] cells was evaluated in a radioligand binding assay as described previously. Briefly, 10 mM stock solutions of the test compounds in DMSO were prepared. Each compound was tested at eight concentrations ranging from 10^−5 to 10^−12 M (final concentration). All assays were carried out in duplicate. […] The radioactivity was counted in MicroBeta 2 [6] or MicroBeta Trilux counter (PerkinElmer). Data were fitted to a one-site curve-fitting equation with Prism 6 (GraphPad Software, San Diego, CA, USA) and Ki values were calculated from IC50 values (from at least three experiments performed in duplicates) according to the Cheng−Prusoff equation [12].
Affinity for hH3R was evaluated in a radioligand binding assay using [^3H]N^α-methylhistamine as radioligand in CHO K1 or HEK293 cells stably expressing hH3R as described previously. […] Then, those with at least 50% inhibition for hH3R were selected for further testing (Ki evaluation). […] Compounds were tested in the binding assay in HEK293 cells.

Another series deals with T2, MAO B (Homo sapiens, UniProt P27338).
T2 sequence (P27338 1-520): T1 sequence (P27338 1-520)
Kind of series: reversibility of MAO B inhibition (reactivation by excess p-tyramine, with/without preincubation). The settings on record: inhibitor at IC80. The class given is biochemical. How it is done:
The reversibility of the MAO inhibition was tested as described in [6, 7]. […] Two variants of experiment were performed. […] After 22 min, the concentration of the substrate was increased to 200 µM and the signal was measured for 5 h.

human histamine H3 receptor (hH3R), sequence (Q9Y5N1 whole entry): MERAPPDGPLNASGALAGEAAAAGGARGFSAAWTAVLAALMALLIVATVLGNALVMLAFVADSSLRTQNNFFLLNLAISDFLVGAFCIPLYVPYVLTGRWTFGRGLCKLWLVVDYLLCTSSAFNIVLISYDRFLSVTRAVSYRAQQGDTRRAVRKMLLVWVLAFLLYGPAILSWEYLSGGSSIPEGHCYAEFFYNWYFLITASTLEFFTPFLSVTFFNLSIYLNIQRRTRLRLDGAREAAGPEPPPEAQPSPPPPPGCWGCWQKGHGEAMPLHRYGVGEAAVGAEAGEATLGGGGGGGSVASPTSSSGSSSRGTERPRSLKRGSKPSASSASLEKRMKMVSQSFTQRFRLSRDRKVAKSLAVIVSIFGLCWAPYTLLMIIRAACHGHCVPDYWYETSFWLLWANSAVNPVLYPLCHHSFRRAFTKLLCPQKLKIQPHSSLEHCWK

`CC(C)(C)c1ccc(OCCCN2CCN(c3ccccc3)CC2)cc1.O=C(O)C(=O)O` [Compound 16, 1-(3-(4-(tert-Butyl)phenoxy)propyl)-4-phenylpiperazine hydrogen oxalate] had a melting point of 164 to 166 °C. At human MAO B (hMAO B), the inhibition at 1 µM turned out to be 14%. Further, the “hH3R activity in words” value in series [1] is “weak potency”. This molecule also came in with a Ki in series [1] (hH3R Ki [nM] ± SEM) of 535 ± 41 nM.

The molecule `CC(C)(C)c1ccc(OCCCN2CCN(C/C=C\c3ccccc3)CC2)cc1.O=C(O)C(=O)O` [Compound 17, (Z)-1-(3-(4-(tert-Butyl)phenoxy)propyl)-4-(3-phenylallyl)piperazine hydrogen oxalate] yielded a melting point of 217 to 219 °C. Moreover, the inhibition at 1 µM at human MAO B (hMAO B) is 7%. Moreover, in series [1], the “hH3R activity in words” value was “no activity at all” and the inhibition at 1 µM is 0%.

As to `CCN(CC)CCCOc1ccc(C(C)(C)C)cc1.O=C(O)C(=O)O` (hydrate or solvate) [Compound 7, 3-(4-(tert-Butyl)phenoxy)-N,N-diethylpropan-1-amine hydrogen oxalate], the melting point is 105 to 108 °C.

Molecule `CC(C)(C)c1ccc(NC(=O)OCCCN2CCCCC2)cc1` [Compound 29, 3-(Piperidin-1-yl)propyl (4-(tert-butyl)phenyl)carbamate hydrogen oxalate] had an IC50 at human MAO B (hMAO B) of 2.33 ± 0.436 µM. Moreover, the inhibition constant (Ki) in series [1] (read-out: hH3R Ki [nM] ± SEM) is more than 1000 nM. Also, in series [1], the inhibition at 1 µM came out at 32%.

Molecule `CC(C)(C)c1ccc(OCCCN2CCOCC2)cc1.O=C(O)C(=O)O` [Compound 14, 4-(3-(4-(tert-Butyl)phenoxy)propyl)morpholine hydrogen oxalate] gave a melting point of 188 to 192 °C. This molecule also had a half-inhibitory concentration (IC50) at human MAO B (hMAO B) of 0.192 ± 0.014 µM. In series [1], the “hH3R activity in words” value is “weak potency” and the inhibition at 1 µM was 11%.

The molecule `CC(C)(C)c1cccc(OCCCN2CCCCC2)c1.Cl` (hydrate or solvate) [Compound 25, 1-(3-(3-(tert-Butyl)phenoxy)propyl)piperidine hydrogen chloride] returned a melting point of 145 to 148 °C.

For the molecule `Cc1cccc(C(C)(C)C)c1OCCCN1CCCCC1.O=C(O)C(=O)O` [Compound 26, 1-(3-(2-(tert-Butyl)-6-methylphenoxy)propyl)piperidine hydrogen oxalate], the melting point fell in the range of 134 to 135 °C. The inhibition at 1 µM on human MAO B (hMAO B) stood at 0%. Also, in series [1] (read-out: hH3R Ki [nM] ± SEM), the Ki is more than 1000 nM. In series [1], the inhibition at 1 µM came to 0%.

With `CCN(C)CCCOc1ccc(C(C)(C)C)cc1` [Compound 5, 3-(4-(tert-Butyl)phenoxy)-N-ethyl-N-methylpropan-1-amine hydrogen oxalate], half-maximal inhibition at human MAO B (hMAO B) (IC50) was put at 0.009 µM. In addition, in series [1] (read-out: hH3R Ki [nM] ± SEM), the inhibitory constant (Ki) was found to be 484 ± 15 nM.

On to `CC(C)(C)NC(=O)OCCCN1CCCCC1` [Compound 30, 3-(Piperidin-1-yl)propyl tert-butylcarbamate hydrogen oxalate], for which the inhibition at 1 µM on human MAO B (hMAO B) turned out to be 47%; in series [1] it was 15%.

With `CC(C)N(C)CCCOc1ccc(C(C)(C)C)cc1` [Compound 6, 3-(4-(tert-Butyl)phenoxy)-N-isopropyl-N-methylpropan-1-amine hydrogen oxalate], on human MAO B (hMAO B), half-maximal inhibition (IC50) was put at 0.006 ± 0.001 µM. For the same molecule, the Ki in series [1] (read-out: hH3R Ki [nM] ± SEM) was 900 ± 75 nM.

`CCN(CC)CCCOc1ccc(C(C)(C)C)cc1` [Compound 7, 3-(4-(tert-Butyl)phenoxy)-N,N-diethylpropan-1-amine hydrogen oxalate] showed an IC50 on human MAO B (hMAO B) of 0.015 ± 0.004 µM. In addition, in series [1], the inhibition at 1 µM was 32%.

`Cc1ccc(OCCCN2CCCCC2)c(C(C)(C)C)c1.O=C(O)C(=O)O` [Compound 28, 1-(3-(2-(tert-Butyl)-4-methylphenoxy)propyl)piperidine hydrogen oxalate] returned a melting point of 182 to 184 °C. Also, on human MAO B (hMAO B), the inhibition at 1 µM stood at 7%. The inhibition constant Ki in series [1] (read-out: hH3R Ki [nM] ± SEM) worked out at 448 ± 59 nM.

On to `CC(C)(C)CC(C)(C)NC(=O)OCCCN1CCCCC1` [Compound 31, 3-(Piperidin-1-yl)propyl (2,4,4-trimethylpentan-2-yl)carbamate hydrogen oxalate], for which the inhibition at 1 µM on human MAO B (hMAO B) came out at 41%; in series [1], 19%.

On to `CC(C)(C)c1ccc(OCCCN2CCCCC2)cc1` [DL76, 1-(3-(4-tert-butylphenoxy)propyl)piperidine, reference compound], for which the Ki in series [1] (read-out: hH3R Ki [nM] ± SEM) is 57 nM and 57.5 nM.

For the molecule `CC(C)N(CCCOc1ccc(C(C)(C)C)cc1)C(C)C` [Compound 8, 3-(4-(tert-Butyl)phenoxy)-N,N-diisopropylpropan-1-amine hydrogen chloride], the IC50 at human MAO B (hMAO B) was found to be 0.037 ± 0.006 µM. The inhibition at 1 µM in series [1] was found to be 8%.

At human MAO B (hMAO B), `CC(C)(C)c1cccc(OCCCN2CCCCC2)c1` [Compound 25, 1-(3-(3-(tert-Butyl)phenoxy)propyl)piperidine hydrogen chloride] showed an IC50 of 1.02 ± 0.069 µM. Also, the inhibition constant (Ki) in series [1] (read-out: hH3R Ki [nM] ± SEM) came to 340 ± 23 nM.

Consider `CC(C)(C)c1ccccc1OCCCN1CCCCC1` [Compound 24, 1-(3-(2-(tert-Butyl)phenoxy)propyl)piperidine hydrogen oxalate], for which the inhibition at 1 µM at human MAO B (hMAO B) worked out at 4%; in series [1] it was 13%. For the same molecule, the inhibition constant Ki in series [1] (read-out: hH3R Ki [nM] ± SEM) was more than 1000 nM.

At human MAO B (hMAO B), `CC(C)(C)CCNC(=O)OCCCN1CCCCC1` [Compound 32, 3-(Piperidin-1-yl)propyl (3,3-dimethylbutyl)carbamate hydrogen oxalate] showed a 50% inhibitory concentration (IC50) of 0.925 ± 0.029 µM. Further, the inhibition at 1 µM in series [1] amounted to 20%.

At human MAO B (hMAO B), `CN(C)CCCOc1ccc(C(C)(C)C)cc1` [Compound 4, 3-(4-(tert-Butyl)phenoxy)-N,N-dimethylpropan-1-amine hydrogen oxalate] yielded a 50% inhibitory concentration (IC50) of 0.019 ± 0.002 µM. Besides, the inhibition at 1 µM in series [1] was found to be 24%.

At human MAO B (hMAO B), `CN1CCN(CCCOc2ccc(C(C)(C)C)cc2)CC1.O=C(O)C(=O)O` [Compound 15, 1-(3-(4-(tert-Butyl)phenoxy)propyl)-4-methylpiperazine hydrogen oxalate] showed a 50% inhibitory concentration (IC50) of 0.665 ± 0.118 µM. In series [1], the “hH3R activity in words” value is given as “no activity at all” and the inhibition at 1 µM stood at 0%.

Take `Cc1ccc(C(C)(C)C)c(OCCCN2CCCCC2)c1` [Compound 27, 1-(3-(2-(tert-Butyl)-5-methylphenoxy)propyl)piperidine hydrogen oxalate]: the inhibition at 1 µM was 4% at human MAO B (hMAO B) and 0% in series [1]. Further, the Ki in series [1] (read-out: hH3R Ki [nM] ± SEM) was more than 1000 nM.

For `C#CCN[C@@H]1CCc2ccccc21` [rasagiline, reference compound], the “effect of 30 min preincubation on inhibition (preincubated vs non-preincubated)” value on MAO B is listed as “inhibited the enzyme more strongly than non-preincubated”. At MAO B (excess p-tyramine 200 µM), the “reversibility of MAO B inhibition” value is “Irreversible inhibition”.

As to `CC1CCCC(C)N1CCCOc1ccc(C(C)(C)C)cc1.Cl` (stereo not drawn) (hydrate or solvate) [Compound 11, 1-(3-(4-(tert-Butyl)phenoxy)propyl)-2,6-dimethylpiperidine hydrogen chloride], the melting point is 194 to 196 °C (dec.).

As to `CC1CCCC(C)N1CCCOc1ccc(C(C)(C)C)cc1` (stereo not drawn) [Compound 11, 1-(3-(4-(tert-Butyl)phenoxy)propyl)-2,6-dimethylpiperidine hydrogen chloride], the IC50 against human MAO B (hMAO B) worked out at 0.009 ± 0.001 µM. The inhibition constant Ki in series [1] (read-out: hH3R Ki [nM] ± SEM) was < 100 nM and 97 nM.
